A short description of data set [1]: Induction of TFEB nuclear translocation in human HeLa cells expressing EGFP at 30 uM measured at 6 hrs by fluorescence microscopic analysis. It counts as functional.
Data set [2] has as its system HeLa. The data set is described as follows: Cytotoxicity against human HeLa cells at 30 uM. It counts as toxicity, cell-based.
A short description of data set [3]: Induction of TFEB nuclear translocation in human HeLa cells expressing EGFP at 10 uM measured at 3 hrs by fluorescence microscopic analysis. It counts as functional.
A short description of data set [4]: Induction of TFEB nuclear translocation in human HeLa cells expressing EGFP at 30 uM measured at 3 hrs by fluorescence microscopic analysis. It counts as functional.
The nature of data set [5]: Induction of TFEB nuclear translocation in human HeLa cells expressing EGFP at 10 uM measured at 6 hrs by fluorescence microscopic analysis. It counts as functional.
For data set [6], the system named is HeLa. As to the kind of experiment: Induction of lysosome biogenesis in human HeLa cells assessed as increase in number of acidified lysosomes at 10 uM incubated for 24 hrs by LysiTracker red staining based flow cytometry analysis. It counts as functional, cell-based.
For data set [7], the system named is HeLa. The data set is described as follows: Cytotoxicity against human HeLa cells assessed as effect on cell viability at 10 uM incubated for 24 hrs. It counts as functional, cell-based.
Data set [8] relates to HeLa. As to the kind of experiment: Induction of cell cycle arrest in human HeLa cells assessed as effect on CDK4 level at 10 uM incubated for 12 hrs by qRT-PCR analysis. It counts as functional, cell-based. In general terms: Real-time PCR tracks product formation cycle by cycle.
The test system of data set [9] is HeLa. As to the kind of experiment: Upregulation of LC3B mRNA expression in human HeLa cells at 10 uM incubated for 24 hrs by qRT-PCR analysis. It counts as functional, cell-based.
For data set [10], the system named is HeLa. As to the kind of experiment: Upregulation of […] mRNA expression in human HeLa cells at 10 uM incubated for 24 hrs by qRT-PCR analysis. It counts as functional, cell-based.
The test system of data set [11] is HeLa. The data set is described as follows: Upregulation of CTSF mRNA expression in human HeLa cells at 10 uM incubated for 24 hrs by qRT-PCR analysis. It counts as functional, cell-based.
Data set [12] relates to HeLa. As to the kind of experiment: Upregulation of […] mRNA expression in TFEB knockout human HeLa cells at 10 uM incubated for 24 hrs by qRT-PCR analysis. It counts as functional, cell-based.
For data set [13], the system named is Primary neocortical neuron. As to the kind of experiment: Cytotoxicity against mouse Primary neocortical neuron cells assessed as effect on cell viability at 10 uM incubated for 24 hrs. It counts as functional, cell-based.
Data set [14] is described as follows: Volume of distribution at steady state in ICR mouse measured upto 24 hrs by LC-MS/MS analysis. It counts as ADME. The conditions noted are these: in vivo, read-out: Vdss.
Data set [15] relates to HeLa. As to the kind of experiment: Upregulation of Atg16L1 mRNA expression in TFEB knockout human HeLa cells at 10 uM incubated for 24 hrs by qRT-PCR analysis. It counts as functional, cell-based.
Data set [16] can be described thus: AUC (0 to t) in ICR mouse at 5 mg/kg, iv measured upto 24 hrs by LC-MS/MS analysis. To be noted: ICR, in vivo. It counts as ADME, organism-based.
In data set [17] the test system is HeLa. As to the kind of experiment: Upregulation of ATG2A mRNA expression in human HeLa cells at 10 uM incubated for 24 hrs by qRT-PCR analysis. It counts as functional, cell-based.
Data set [18] deals with Cyclin-dependent kinase 9 (Homo sapiens) (UniProt P50750). As to the kind of experiment: Inhibition of CDK9 in human SH-SY5Y cells assessed as decrease in Rpb1 phosphorylation at 10 uM incubated for 6 hrs by immunoblotting analysis. It counts as cell-based. On the technique in general: A western blot detects proteins with antibodies after separation by electrophoresis.
Data set [19] deals with HeLa. The data set is described as follows: Upregulation of CTSF mRNA expression in TFEB knockout human HeLa cells at 10 uM incubated for 24 hrs by qRT-PCR analysis. It counts as functional, cell-based.
The test system of data set [20] is HeLa. The data set is described as follows: Upregulation of HEXA mRNA expression in TFEB knockout human HeLa cells at 10 uM incubated for 24 hrs by qRT-PCR analysis. It counts as functional, cell-based.
Data set [21] deals with HeLa. The data set is described as follows: Upregulation of Atg16L1 mRNA expression in human HeLa cells at 10 uM incubated for 24 hrs by qRT-PCR analysis. It counts as functional, cell-based.
Data set [22] deals with HeLa. As to the kind of experiment: Upregulation of CTSD mRNA expression in TFEB knockout human HeLa cells at 10 uM incubated for 24 hrs by qRT-PCR analysis. It counts as functional, cell-based.
The subject of data set [23] is HeLa. The data set is described as follows: Upregulation of p62 mRNA expression in human HeLa cells at 10 uM incubated for 24 hrs by qRT-PCR analysis. It counts as functional, cell-based.
In data set [24] the test system is HeLa. As to the kind of experiment: Induction of cell cycle arrest in human HeLa cells assessed as effect on LAMP1 level at 10 uM incubated for 12 hrs by qRT-PCR analysis. It counts as functional, cell-based.
Data set [25] concerns HeLa. As to the kind of experiment: Upregulation of OPTN mRNA expression in human HeLa cells at 10 uM incubated for 24 hrs by qRT-PCR analysis. It counts as functional, cell-based.
For data set [26], the system named is HeLa. As to the kind of experiment: Upregulation of LC3B mRNA expression in TFEB knockout human HeLa cells at 10 uM incubated for 24 hrs by qRT-PCR analysis. It counts as functional, cell-based.
For data set [27], the system named is HeLa. As to the kind of experiment: Upregulation of UVRAG mRNA expression in TFEB knockout human HeLa cells at 10 uM incubated for 24 hrs by qRT-PCR analysis. It counts as functional, cell-based.
In a further data set the test system is SH-SY5Y. The data set is described as follows: Cytotoxicity against human SH-SY5Y cells assessed as effect on cell viability at 10 uM incubated for 24 hrs. It counts as functional, cell-based.
In data set [28] the test system is HeLa. The data set is described as follows: Upregulation of CTSD mRNA expression in human HeLa cells at 10 uM incubated for 24 hrs by qRT-PCR analysis. It counts as functional, cell-based.
For data set [29], the system named is HeLa. The data set is described as follows: Induction of cell cycle arrest in human HeLa cells assessed as effect on CDK7 level at 10 uM incubated for 12 hrs by qRT-PCR analysis. It counts as functional, cell-based.
For data set [30], the system named is HeLa. The data set is described as follows: Upregulation of ATG2A mRNA expression in TFEB knockout human HeLa cells at 10 uM incubated for 24 hrs by qRT-PCR analysis. It counts as functional, cell-based.
The test system of data set [31] is HeLa. The data set is described as follows: Upregulation of HEXA mRNA expression in human HeLa cells at 10 uM incubated for 24 hrs by qRT-PCR analysis. It counts as functional, cell-based.
The test system of data set [32] is HeLa. As to the kind of experiment: Upregulation of LAMP1 mRNA expression in TFEB knockout human HeLa cells at 10 uM incubated for 24 hrs by qRT-PCR analysis. It counts as functional, cell-based.
In data set [33] the test system is HeLa. The data set is described as follows: Upregulation of OPTN mRNA expression in TFEB knockout human HeLa cells at 10 uM incubated for 24 hrs by qRT-PCR analysis. It counts as functional, cell-based.
Data set [34] concerns HeLa. As to the kind of experiment: Upregulation of p62 mRNA expression in TFEB knockout human HeLa cells at 10 uM incubated for 24 hrs by qRT-PCR analysis. It counts as functional, cell-based.
Data set [35] has as its system HeLa. The data set is described as follows: Induction of cell cycle arrest in human HeLa cells assessed as effect on p21 level at 10 uM incubated for 12 hrs by qRT-PCR analysis. It counts as functional, cell-based.
For data set [36], the system named is HeLa. As to the kind of experiment: Upregulation of LAMP1 mRNA expression in human HeLa cells at 10 uM incubated for 24 hrs by qRT-PCR analysis. It counts as functional, cell-based.
Data set [37] has as its system HeLa. As to the kind of experiment: Upregulation of GLA mRNA expression in human HeLa cells at 10 uM incubated for 24 hrs by qRT-PCR analysis. It counts as functional, cell-based.
Data set [38] relates to HeLa. The data set is described as follows: Upregulation of GLA mRNA expression in TFEB knockout human HeLa cells at 10 uM incubated for 24 hrs by qRT-PCR analysis. It counts as functional, cell-based.
In data set [39] the test system is HeLa. The data set is described as follows: Upregulation of UVRAG mRNA expression in human HeLa cells at 10 uM incubated for 24 hrs by qRT-PCR analysis. It counts as functional, cell-based.

A word on the AUC(0-t): it is exposure summed from dosing to a finite time, without extrapolation to infinity.

Molecules are shown by their SMILES. Activity calls are given as the source filed them. The calls are words filed in the database; no cut-off is given here.

Chain of Cyclin-dependent kinase 9 (Homo sapiens) (P50750 whole entry): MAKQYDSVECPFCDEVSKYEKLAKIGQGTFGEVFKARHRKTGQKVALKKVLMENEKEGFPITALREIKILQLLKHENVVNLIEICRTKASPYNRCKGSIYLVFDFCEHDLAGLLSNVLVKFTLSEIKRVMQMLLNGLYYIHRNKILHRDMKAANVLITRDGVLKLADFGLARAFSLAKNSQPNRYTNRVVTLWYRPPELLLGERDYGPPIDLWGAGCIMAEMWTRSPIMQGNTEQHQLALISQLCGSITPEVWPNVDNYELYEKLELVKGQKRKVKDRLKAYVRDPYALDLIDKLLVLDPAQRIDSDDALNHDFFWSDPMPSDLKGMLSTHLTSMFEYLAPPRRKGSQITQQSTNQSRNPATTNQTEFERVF

With `CN1CCC(CN2CCc3cc4c(cc3C2CCc2c[nH]c3ccccc23)OCO4)CC1` (configuration not stated), the Activity is 81% in data set [1]; “Toxic” in the data set with HeLa [2]; 30% in data set [3]; 80% in data set [4]; 40% in data set [5].

Turning to `COc1cc2c(cc1OC)C(CCc1c[nH]c3ccc(O)cc13)N(CC1CCOCC1)CC2` (configuration not stated), the Activity in data set [1] was 88%; with HeLa [2], “Toxic”; in [3], 25%; in data set [4], 85%; in data set [5] it was 34%.

In the case of `Oc1cc2c(cc1O)C(CCc1c[nH]c3ccccc13)N(CC1CCOCC1)CC2` (configuration not stated), the Activity in data set [1] was 60%; with HeLa [2], “Toxic”; in data set [3] it was 10%; in data set [4] it was 28%; in data set [5], 10%.

On to `CC(C)N1CCc2cc3c(cc2C1CCc1c[nH]c2ccccc12)OCO3` (configuration not stated), for which the Activity is recorded as 75% in [1], 22% in [3], 70% in data set [4] and 33% in data set [5]. The result with HeLa [6] was Active.

For the compound `c1cnc2[nH]cc(CCC3NCCc4cc5c(cc43)OCO5)c2c1` (configuration not stated), the Activity in data set [1] was 70%; in the data set with HeLa [2], “Toxic”; in data set [3], 30%; in [4] it was 70%; in data set [5] it was 30%.

In the case of `COc1ccc2[nH]cc(CCC3c4cc(OC)c(OC)cc4CCN3CC3CCOCC3)c2c1` (configuration not stated), the result (in the data set with HeLa [7]; in the data set with HeLa [9]; with HeLa [10]; in the data set on HeLa [11]; with HeLa [12]; in data set [13]) was Active. The result with HeLa [15], with HeLa [17], in the data set on HeLa [19], with HeLa [20], in the data set with HeLa [21] and with HeLa [6] was Active. The outcome in the data set with HeLa [22], with HeLa [23], in the data set on HeLa [25], in the data set on HeLa [26], in the data set with HeLa [27] and with SH-SY5Y was Active. In addition, the result with HeLa [28], in the data set with HeLa [30], in the data set with HeLa [31], in the data set with HeLa [32], with HeLa [33] and in the data set with HeLa [34] was Active. The outcome with HeLa [36], in the data set with HeLa [37], in the data set on HeLa [38] and in the data set with HeLa [39] was Active. Further, the result in the data set on HeLa [8], in the data set with HeLa [24], with HeLa [29] and in the data set with HeLa [35] was inactive. Besides, the Activity came out at 98% in data set [1], 74% in data set [3], 96% in data set [4] and 76% in data set [5]. Besides, the Vd in data set [14] was determined as 97.5 L/kg. This compound also gave an AUC(0-t) at 24 h in data set [16] of 21.5 ng·h/mL. For the same compound, in [18], the inhibition entry is “Active”.

Take `COc1cc2c(cc1O)CCN(CC1CCOCC1)C2CCc1c[nH]c2ccccc12` (configuration not stated): the Activity is listed as 80% in data set [1]; “Toxic” with HeLa [2]; 20% in data set [3]; 70% in data set [4]; 20% in data set [5].

Take `c1ccc2c(CCC3c4cc5c(cc4CCN3CC3CCNCC3)OCO5)c[nH]c2c1` (configuration not stated): the Activity is 100% in [1]; “Toxic” with HeLa [2]; 22% in data set [3]; 96% in data set [4]; 35% in data set [5].

As to `COc1cc2c(cc1O)C(CCc1c[nH]c3ccccc13)N(CC1CCOCC1)CC2` (configuration not stated), the Activity in data set [1] is recorded as 77%; in the data set on HeLa [2], “Toxic”; in data set [3], 22%; in data set [4], 75%; in [5] it was 37%.

With `CCC(=O)N1CCN(c2ccc(-n3c(=O)ccc4cnc5ccc(-c6cnc7ccccc7c6)cc5c43)cc2C(F)(F)F)CC1` [TORIN1], the Activity in [1], in data set [3], in data set [4] and in [5] was 100% in each case.

In the case of `c1ccc2c(CCC3c4cc5c(cc4CCN3CC3CCOCC3)OCO5)c[nH]c2c1` (configuration not stated), the Activity in data set [1] is listed as 93%; in data set [3], 47%; in data set [4] it was 86%; in data set [5] it was 67%.

For the origin of these results see ChEMBL document CHEMBL5506074, “Discovery and Optimization of Tetrahydroisoquinoline Derivatives To Enhance Lysosome Biogenesis as Preclinical Candidates for the Treatment of Alzheimer's Disease” (J Med Chem, 2024).
